Results: patent US10718760B2, “Method for drug binding analysis in a tissue sample” (Treat4Life AB, priority 2015, dated 2020)

Molecular target: BRAF target protein with V600E mutation (Homo sapiens, UniProt P15056, V600E)
Test: MALDI-MSI displacement competitive binding on malignant melanoma tissue sections
Conditions: for Isotope Signal: 1 hour, MS/MS m/z 389.1
Experimental: (1) Making 10 micrometer sectioning of the frozen Human Malignant Melanoma tissues performed at −20° C. Thereafter, (2) sample preparation was preformed by slowly thawing and drying the tumor sections at room temperature. Then, the sections were immersed into methanol for 5 min and dried at room temperature. Correspondingly, frozen Human healthy tissue resected from lymphoid nodes were handled in the same way, and used as negative controls. (3) Drug incubation was performed for one hour by using unlabeled ligand, here Vemurafenib, at a concentration of 100 nM (nanomolar) to determine the binding of the ligand molecule to its protein target. […] During titration experiments, the concentration of stable isotope labeled Vemurafenib was 100 nM, 1 μM, 10 μM and 100 μM, (micro Molar), respectively. (4) After incubation, the sections were washed by PBS 3 times and then followed by washing with MilliQ water 3 consecutive times, and (5) mass spectra were obtained using a MALDI LTQ-Orbitrap XL instrument (Thermo Scientific, Germany), and compound signals were obtained by the orbitrap and ion trap. Image analysis was conducted using ImageQuest (Thermo Scientific, Germany). For histological analysis, both H&E staining and immuno-histochemical analysis using monoclonal antibody against BRAF V600E were conducted.
The frozen Human Malignant Melanoma tissues were resected from lymphoid nodes, constituting the tumor tissue. The tissue sections were sections with 10 μm (micro meter) slices thick by the use of a cryostat, performed at −20° C. After sectioning, the slices were slowly thawed and dried at room temperature. Then, the sections were immersed into methanol for 5 min and dried at room temperature. Correspondingly, frozen Human healthy tissue resected from lymphoid nodes was used as negative controls.
Incubation was made for one hour by using unlabeled Vemurafenib at a concentration of 100 nM (nanomolar) to determine the binding of the drug molecule to its protein target. […] The incubation time during competitive binding was 1 hour. […] During titration experiments, the concentration of stable isotope labeled Vemurafenib was 100 nM, 1 μM, 10 μM and 100 μM, (micro Molar), respectively.
After incubation, the sections were washed by PBS 3 times and then followed by washing with MilliQ water 3 consecutive times.
The mass spectra were obtained using a MALDI LTQ-Orbitrap XL instrument (Thermo Scientific, Germany). The compound signals were obtained by the orbitrap and ion trap. Image analysis was conducted using ImageQuest (Thermo Scientific, Germany). For histological analysis, both H&E staining and immuno-histochemical analysis using monoclonal antibody against BRAF V600E were conducted.
Binding intensity was calculated by identifying the area of biding from the mass spec image and the intensity read is calculated by the ImageQuest software of the instrument from the signal and background data.

BRAF target protein with V600E mutation, sequence (P15056 whole entry V600E): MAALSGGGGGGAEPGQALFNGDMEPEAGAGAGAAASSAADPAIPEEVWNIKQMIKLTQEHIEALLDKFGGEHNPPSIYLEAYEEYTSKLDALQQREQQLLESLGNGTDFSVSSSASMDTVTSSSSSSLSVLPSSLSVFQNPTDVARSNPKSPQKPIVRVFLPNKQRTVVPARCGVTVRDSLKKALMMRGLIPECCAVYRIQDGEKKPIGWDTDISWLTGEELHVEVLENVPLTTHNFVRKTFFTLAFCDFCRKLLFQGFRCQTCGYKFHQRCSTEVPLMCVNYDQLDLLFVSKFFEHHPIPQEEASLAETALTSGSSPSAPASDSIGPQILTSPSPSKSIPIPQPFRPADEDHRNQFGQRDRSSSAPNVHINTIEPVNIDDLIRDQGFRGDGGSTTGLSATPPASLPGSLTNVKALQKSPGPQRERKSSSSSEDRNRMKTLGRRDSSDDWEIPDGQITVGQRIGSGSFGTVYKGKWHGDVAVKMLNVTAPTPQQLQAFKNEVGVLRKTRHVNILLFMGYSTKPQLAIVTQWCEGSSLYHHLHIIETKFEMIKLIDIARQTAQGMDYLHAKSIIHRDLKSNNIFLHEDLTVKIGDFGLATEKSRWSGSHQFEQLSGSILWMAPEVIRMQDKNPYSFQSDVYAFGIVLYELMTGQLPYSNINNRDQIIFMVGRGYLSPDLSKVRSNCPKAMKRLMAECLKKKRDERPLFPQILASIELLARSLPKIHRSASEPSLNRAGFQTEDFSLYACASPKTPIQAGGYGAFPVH

## ^13C-Vemurafenib
0.1 μM ^13C-Vemurafenib co-incubated with 100 nM Vemurafenib
  Isotope Signal: 326
1 μM ^13C-Vemurafenib co-administered, m/z 389.1, V600E patient tissue
  Competition with 100 nM Vemurafenib: outcompeting the 100 nM Vemurafenib
1 μM ^13C-Vemurafenib co-incubated with 100 nM Vemurafenib
  Isotope Signal: 3233
10 μM ^13C-Vemurafenib co-incubated with 100 nM Vemurafenib
  Isotope Signal: 29870
100 μM ^13C-Vemurafenib co-incubated with 100 nM Vemurafenib
  Isotope Signal: 259400
